Source: US20210268070A1, “Use of Immunomodulators to Control Infection and Stimulate Healing in Normal and Diabetic Wounds” (priority 2018, published 2021)
Entries after “also recorded” stand apart in the source; their conditions may differ.

Tests used:
inflammatory cytokines = assay: Production of inflammatory cytokines in normal wound; assay type: in vivo, mice
Description: FIGS. 7A and 7B illustrate that CCL3 treatment increases the production of inflammatory cytokines in a normal wound. N=4; Significance determined as compared to PBS *<0.05, **p<0.01, ***p<0.001.
FIGS. 8A and 8B illustrate that LPS and fMLP treatment increases the production of inflammatory cytokines in a normal wound. N=4; LPS (10 ng) and fMLP (100 nM) directly added to wounds at the time of infection after wounding. Significance determined as compared to PBS *<0.05, **p<0.01.
Tissue-Tek O.C.T. (Sakura); Lysing Matrix D (MP Biomedicals); Collagenase (Roche Diagnostics), Hematoxylin and eosin (H&E); DNase 1 (Sigma-Aldrich); Hyluronidase, Streptozotocin (Sigma-Aldrich); Trizol (Invitrogen); CD45 antibody (eBioscience, Inc); Ly6C; Ly6G; CD11b; CD3 (BioLegend); CD68; GAPDH (Sigma-Aldrich). Ly6G and CD68 (Abcam); Primer pairs for GAPDH were from Qiagen. Masson's trichrome stain (Sigma-Aldrich); Picrosirius red (Abcam); Fibronectin (Chemicon International); Insulin slow-release capsules (Linplant; LinShin, Toronto, Canada) CCL3 (R&D Systems) fMLP (Sigma-Aldrich); II-1β ELISA (R&D Systems); TNF-α ELISA (R&D Systems).

leukocytes = assay: Leukocyte migration (H&E staining) and activation (MPO ELISA) in normal wound; assay type: in vivo, C57B mice; settings: for leukocyte migration and neutrophil activation in a normal wound: compared to PBS, FIGS. 10A-10D
Excerpt: FIGS. 10A-10D illustrate that immunomodulatory treatment enhances leukocyte migration and neutrophil activation in a normal wound. (10A, 10B—CCL3, 10C—LPS, fMLF, 10D—GM-CSF), N=4; Significance determined as compared to PBS *<0.05, **p<0.01, ***p<0.001.
We next examined the impact of CCL3 topical treatment on leukocyte migration by H&E staining, and on leukocyte activation by myeloperoxidase (MPO) measurements by ELISA. (MPO is primarily used as a marker for neutrophil activation but it can also be expressed to lesser extent in macrophages).

P. aeruginosa PA103 = assay: Wound model of infection with PA103 in normal (C57BL) mice; assay type: in vivo; settings: for infection control against P. aeruginosa PA103 in normal wounds: C57B mice, immunomodulator added locally at time of infection, compared to PBS, FIGS. 3A, 4A, 4B, 6A
Description: The implant model of infection in C57B mice was used for 10^6 PA103 (FIG. 2A) or 10^6 USA300 MRSA (FIG. 2C). The wound model of infection was used for 10^6 PA103 in C57BL mice (FIG. 2B) or diabetic db/db mice (FIG. 2D). Infection was carried out at the time of surgery by adding bacteria directly to the surgical sites. Immunomodulators, namely, LPS (10 ng or 100 ng), fMLP (10 ng or 100 ng), CCL3 (1 μg) were added topically at the surgical sites at the time of surgery & infection. GM-CSF (10 μg/kg), tobramycin (Tob at 3.5 mg/kg), and vancomycin (40 mg/kg) were added systemically by i.p. injection 1 h before surgical implantation and infection. Infection levels were determined 24 h following infection (N>4 animals/group; NS=not significant, * p<0.01, ** p<0.001, ***p<0.0001 One-way ANOVA).
(15A) C57BL/6 mice received 40 mg/kg prophylaxis (Sys) vancomycin (Vanc) or 3.5 mg/kg tobramycin (Tobra) by i.p. injection. (15A) 1 h after antibiotic administration, 106 CFU of USA300 was added to implant after insertion into facia (Implant Model). (15B) 1 h after antibiotic administration, 10^6CFU of USA300 or 106CFU PA103 (Pa) were added full-thickness wounds in of C57BL/6 (Wound Model). Infection levels at implant surgical site (Tissue & Implant) or a distant site (Spleen), or wound tissues were assessed 24 h following infection. (N>4 animals/group, * p<0.01, ***p<0.0001, One-way ANOVA).
We assessed these immunomodulators for their ability to control wound and/or implant SS's in normal (C57BL/6) or diabetic (db/db) mice. We acknowledge that diabetic individuals are not as immunocompromised as other immunocompromised patient groups. […] All immunomodulators were added locally at the surgical sites at the time of infection, except GM-CSF (10 μg/kg) which was administered systemically by i.p. injection 1 h prior to surgery per its FDA-approved route of delivery. […] CCL3 and GM-CSF are also tested using the implant model of infection. Here, we tested CCL3 and GM-CSF in the wound model of infection in C57B mice.
Implant surgery and wound surgery and surgical site infection are performed according to the following method. On the day of surgery, all mice are anesthetized by an intraperitoneal injection of a ketamine/xylazine mixture (90 mg/kg ketamine+5 mg/kg xylazine for mice). The back of the animals is shaved using an electric shave and scrubbed with alcohol swabs 3 times, a topical antiseptic solution (Hibiclens; chlorhexidine gluconate) is applied to the skin. The surgical procedures are performed with sterile instruments, sterile surgical gloves, and aseptic techniques as follows. For wound surgical procedure, a sterile biopsy punch (5-7 mm diameter) is used to punch through the full thickness of the back skin below the shoulder blades. Four 5-7 mm skin wounds are made on the back of each mouse. Wounds placed in this area cannot be reached by the animals and therefore are protected from self-licking. For implant surgery, a 4-mm long lateral skin incision is made on the upper back, and the skin is retracted. The space above the muscle is opened using blunt dissection with fine forceps, to create a rostral fascia indentation. Then, immunomodulators at indicated concentrations (in a 20 μL volume) or PBS control are injected into the fascia indentation.

[1] = LPS (10 ng) and fMLP (100 nM) directly added to wounds at the time of infection after wounding, FIGS. 8A and 8B
[2] = topical CCL3 to C57B wounds, regardless of infection, FIG. 10A, 10B

Molecule	production of inflammatory cytokines in a normal wound (inflammatory cytokines; [1])	leukocyte migration and neutrophil activation in a normal wound (leukocytes)	infection control against P. aeruginosa PA103 in normal wounds (P. aeruginosa PA103)	production of inflammatory cytokines in a normal wound (inflammatory cytokines; CCL3 treatment, compared to PBS, FIGS. 7A and 7B)	leukocytes' activation in the wound (myeloperoxidase, MPO, by ELISA) (leukocytes; [2])	leukocytes' migration in the wound (H&E staining) (leukocytes; [2])	controlling PA103 infection, compared with prophylaxis tobramycin (P. aeruginosa PA103; C57B mice wound model, topical CCL3 1 μg, both at 10^3 and 10^6 CFU, tobramycin 3.5 mg/kg i.p., FIG. 2B)
CSCC[C@H](NC=O)C(=O)N[C@@H](CC(C)C)C(=O)N[C@@H](Cc1ccccc1)C(=O)O [fMLP, N-Formylmethionyl-leucyl-phenylalanine]	increases	enhances	enhance; also recorded: significantly improved	–	–	–	–
lipopolysaccharide [LPS]	increases	enhances	enhance; also recorded: significantly improved	–	–	–	–
Chemokine (C-C motif) ligand 3 (protein, listed as Homo sapiens, class 1 immunomodulator) MQVSTAALAVLLCTMALCNQFSASLAADTPTACCFSYTSRQIPQNFIADYFETSSQCSKPGVIFLTKRSRQVCADPSEEWVQKYVSDLELSA	–	enhances	enhances; also recorded: effective	increases	significant increases	significant increases	as effective
